In test [1] the target is Melanocortin receptor 5 (Homo sapiens, UniProt P33032). As to the kind of experiment: Tested for its binding affinity towards human recombinant Melanocortin 5 receptor by using radioligand binding assay.
In test [2] the target is T1, Melanocyte-stimulating hormone receptor (Homo sapiens, UniProt Q01726). Briefly: Tested for its binding affinity towards human recombinant Melanocortin 1 receptor by using radioligand binding assay.
Test [3] has as its target T2, Melanocortin receptor 3 (Homo sapiens, UniProt P41968). Briefly: Tested for its binding affinity towards human recombinant Melanocortin 3 receptor by using radioligand binding assay.
In test [4] the target is Melanocortin receptor 4 (Homo sapiens, UniProt P32245). Briefly: Tested for its binding affinity towards human recombinant Melanocortin 4 receptor by using radioligand binding assay.
Chain of Melanocortin receptor 4 (P32245 whole entry): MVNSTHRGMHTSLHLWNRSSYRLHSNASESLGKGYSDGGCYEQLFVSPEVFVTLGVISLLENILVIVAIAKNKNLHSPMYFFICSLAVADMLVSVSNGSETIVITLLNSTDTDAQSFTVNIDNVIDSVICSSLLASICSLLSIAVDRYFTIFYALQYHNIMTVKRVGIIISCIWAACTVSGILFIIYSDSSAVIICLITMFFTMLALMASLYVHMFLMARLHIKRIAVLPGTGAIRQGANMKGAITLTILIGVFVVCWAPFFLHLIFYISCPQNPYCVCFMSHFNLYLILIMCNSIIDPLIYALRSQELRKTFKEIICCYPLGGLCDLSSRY
Test [5] concerns the target T1, Melanocyte-stimulating hormone receptor. As to the kind of experiment: Tested for its binding affinity towards human recombinant Melanocortin 1 receptor by using radioligand binding assay; nb = no binding up to 0.5 mM.
In test [6] the target is T2, Melanocortin receptor 3. As to the kind of experiment: Tested for its binding affinity towards human recombinant Melanocortin 3 receptor by using radioligand binding assay; nb = no binding up to 0.5 mM.

Molecules are shown by their SMILES. Where only a bound is given, the exact number is not on record here.

T1 sequence (Q01726 whole entry): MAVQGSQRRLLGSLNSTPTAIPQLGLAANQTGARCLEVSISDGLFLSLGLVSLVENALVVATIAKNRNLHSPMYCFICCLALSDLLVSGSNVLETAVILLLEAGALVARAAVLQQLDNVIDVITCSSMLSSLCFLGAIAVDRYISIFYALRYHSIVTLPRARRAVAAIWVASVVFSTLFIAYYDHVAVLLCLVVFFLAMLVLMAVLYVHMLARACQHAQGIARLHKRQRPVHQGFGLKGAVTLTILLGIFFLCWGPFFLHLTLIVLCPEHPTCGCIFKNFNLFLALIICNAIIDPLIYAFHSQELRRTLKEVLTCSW
T2 sequence (P41968 whole entry): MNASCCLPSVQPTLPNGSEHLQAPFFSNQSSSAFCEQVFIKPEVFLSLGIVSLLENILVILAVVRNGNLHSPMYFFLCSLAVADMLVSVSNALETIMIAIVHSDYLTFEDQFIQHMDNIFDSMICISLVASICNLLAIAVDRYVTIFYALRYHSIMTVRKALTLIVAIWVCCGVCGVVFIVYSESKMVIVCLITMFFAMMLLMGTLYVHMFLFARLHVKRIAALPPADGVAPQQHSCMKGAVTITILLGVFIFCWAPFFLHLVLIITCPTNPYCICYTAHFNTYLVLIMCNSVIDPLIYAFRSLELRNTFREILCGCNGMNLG
Chain of Melanocortin receptor 5 (P33032 whole entry): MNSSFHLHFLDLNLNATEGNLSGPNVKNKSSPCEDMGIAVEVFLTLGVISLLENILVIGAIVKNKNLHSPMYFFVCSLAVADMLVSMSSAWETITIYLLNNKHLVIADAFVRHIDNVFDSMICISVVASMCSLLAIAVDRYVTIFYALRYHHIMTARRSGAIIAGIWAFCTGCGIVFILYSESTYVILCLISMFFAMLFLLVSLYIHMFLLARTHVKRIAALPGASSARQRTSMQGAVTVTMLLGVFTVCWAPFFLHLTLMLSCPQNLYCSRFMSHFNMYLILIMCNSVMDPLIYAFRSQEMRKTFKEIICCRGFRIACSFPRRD

Take `NC(N)=NCCC[C@H](N)C(=O)N(Cc1cccc2ccccc12)Cc1c[nH]c2ccccc12`: the Ki (as a rule, the dissociation constant of the complex between target and ligand, obtained from inhibition or displacement) in test [1] came to 12 µM; in test [2] it was 11 µM; in test [3], 52 µM; in test [4] it was 70 µM.
Regarding `NCCNC(=O)[C@H](CNCc1ccc2ccccc2c1)NCc1ccc2ccccc2c1`, the Ki in test [1] came out at 28 µM; in test [2], 27 µM; in test [3], 58 µM; in test [4], 44 µM.
In the case of `c1ccc2c(CCNCc3c[nH]c4ccccc34)c[nH]c2c1`, the Ki in test [1] is 18 µM; in test [2], 32 µM; in test [3] it was 86 µM; in test [4], 161 µM.
Taken in the same sequence, the figures for `N=C(N)NCCCNCc1ccc2ccccc2c1` were 36 µM, 19 µM, 31 µM and 56 µM.
For the molecule `NCCCNC(=O)[C@H](CNCc1c[nH]c2ccccc12)NCc1ccc2ccccc2c1`, the Ki in test [1] turned out to be 36 µM; in test [2], 0.7 µM; in test [3], 56 µM; in test [4], 27 µM.
With `c1ccc2c(CN3CCNCC3)c[nH]c2c1`, the inhibition constant (Ki) in test [1] is 256 µM; in test [2], more than 1000 µM; in test [3] it was more than 1000 µM; in test [4], more than 1000 µM.
Consider `c1ccc2cc(CNCCc3c[nH]c4ccccc34)ccc2c1`, for which the Ki in test [1] was determined as 14 µM; in test [2], 16 µM; in test [3], 59 µM; in test [4], 118 µM.
As to `c1ccc2cc(CNCc3cccc4ccccc34)ccc2c1`, the Ki in test [1] was 100 µM; in test [2], more than 1000 µM; in test [3] it was more than 1000 µM; in test [4], more than 1000 µM.
Consider `NCCCNCc1ccc2ccccc2c1`, for which the Ki in test [1] was 43 µM; in test [2] it was more than 1000 µM; in test [3] it was 57 µM; in test [4], 94 µM.
Taken in the same sequence, the figures for `c1ccc2c(CNCc3c[nH]c4ccccc34)cccc2c1` were 38 µM, 26 µM, 214 µM and 161 µM.
As to `N[C@H](CCC(=O)O)C(=O)N(Cc1ccc2ccccc2c1)Cc1cccc2ccccc12`, the Ki is 45 µM in test [1], 46 µM in test [2], 294 µM in test [3] and 89 µM in test [4].
As to `NCCCCNC(=O)[C@H](CCCCNCc1c[nH]c2ccccc12)NCc1ccc2ccccc2c1`, the Ki in test [1] turned out to be 173 µM; in test [2] it was 9.8 µM; in test [3], 167 µM; in test [4], 24 µM.
`NCCCNCc1c[nH]c2ccccc12`: the Ki turned out to be 150 µM in test [1], 28 µM in test [2], 145 µM in test [3] and 104 µM in test [4].
Taken in the same sequence, the figures for `N=C(N)N1CCN(Cc2ccc3ccccc3c2)CC1` were 74 µM, more than 1000 µM, more than 1000 µM and 68 µM.
Consider `N=C(N)N1CCN(Cc2c[nH]c3ccccc23)CC1`, for which the inhibition constant (Ki) in test [1], in test [2], in test [3] and in test [4] was more than 1000 µM in each case.
Turning to `N=C(N)NCCCNCc1c[nH]c2ccccc12`, the Ki in test [1] is 47 µM; in test [2], 12 µM; in test [3], 45 µM; in test [4], 107 µM.
As to `NCCNCc1ccc2ccccc2c1`, the Ki in test [1] is 83 µM; in test [5], “Not Active”; in test [6], “Not Active”; in test [4] it was 8.8 µM.
As to `c1ccc2cc(CN3CCNCC3)ccc2c1`, the Ki in test [1] is 141 µM; in test [2] it was more than 1000 µM; in test [3], more than 1000 µM; in test [4] it was more than 1000 µM.
Turning to `NC(N)=NCCCC(N)C(=O)N(CCc1c[nH]c2ccccc12)Cc1ccc2ccccc2c1` (single isomer, unassigned), the Ki in test [1] was determined as 10 µM; in test [2] it was 1.5 µM; in test [3], 19 µM; in test [4], 15 µM.
On to `NC(N)=NCCC[C@H](N)C(=O)N(Cc1ccc2ccccc2c1)Cc1cccc2ccccc12` (stereo in doubt; 11b), for which the Ki in test [1] amounted to 2.5 µM; in test [2], 0.69 µM; in test [3], 9 µM; in test [4], 5.4 µM.
Taken in the same sequence, the figures for `NC(N)=NCCC[C@H](N)C(=O)N(Cc1ccc2ccccc2c1)Cc1cccc2ccccc12` (stereo in doubt; 11c) were 2.7 µM, 1.2 µM, 18 µM and 2.1 µM.

The values above are taken from ChEMBL document CHEMBL1135263, “Reductive amination products containing naphthalene and indole moieties bind to melanocortin receptors” (Bioorg Med Chem Lett, 2002).
